Assay results from patent US5948436A, “Pharmaceutical composition” (Abbott Laboratories, priority 1995, dated 1999).

Key:
[1] = Oral bioavailability studies in dogs (AUC after oral vs. intravenous dose); parameters: species or system dog (beagle dogs, mixed sexes); details: dog, in vivo, 5 mg/kg
Method: Each dog received a single solid dosage form corresponding to a 5 mg/kg dose of the drug.

[2] = tested on: HIV-2 protease; test: Inhibition of HIV-2 protease; assay type: biochemical
[3] = biological target: HIV-1 protease (HIV-1 M:B_HXB2R, UniProt P04585); assay type: biochemical

Row | SMILES | bioavailability [1] [%] | inhibition of HIV-2 protease [2] | inhibition of HIV-1 protease [3]
1 | CC(C)c1nc(CN(C)C(=O)N[C@H](C(=O)N[C@@H](Cc2ccccc2)C[C@H](O)[C@H](Cc2ccccc2)NC(=O)OCc2cncs2)C(C)C)cs1 [compound III, (2S,3S,5S)-5-(N-(N-((N-Methyl-N-((2-isopropyl-4-thiazolyl)methyl)-amino)carbonyl)valinyl)amino)-2-(N-((5-thiazolyl)methoxycarbonyl)amino)-1,6-diphenyl-3-hydroxyhexane] | < 2 | – | –
2 | CC(C)c1nc(CN(C)C(=O)NC(C(=O)NC(Cc2ccccc2)CC(O)C(Cc2ccccc2)NC(=O)OCc2cncs2)C(C)C)cs1 (stereo not drawn) [formula II] | – | especially effective | especially effective
